Where a chain is given by its changes, count along the chain named.
Columns and labels:
[1] = biological target: T1, OpuAC (isolated SBD of OpuA) (Lactococcus lactis, UniProt Q7DAU8); test: intrinsic tryptophan fluorescence titration; format: binding
T1 sequence (Q7DAU8 319-573): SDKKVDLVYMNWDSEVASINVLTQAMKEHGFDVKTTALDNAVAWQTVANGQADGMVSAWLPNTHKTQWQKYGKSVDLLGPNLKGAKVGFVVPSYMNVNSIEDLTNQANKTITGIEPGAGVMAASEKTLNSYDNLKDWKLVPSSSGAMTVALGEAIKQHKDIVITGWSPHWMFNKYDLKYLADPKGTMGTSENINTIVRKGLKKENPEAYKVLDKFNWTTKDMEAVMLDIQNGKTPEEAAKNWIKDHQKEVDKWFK

[2] = biological target: T2, OpuAC (isolated SBD of OpuA) (Lactococcus lactis, UniProt Q7DAU8, K521C/S319C); test: intrinsic tryptophan fluorescence titration; format: binding
T2 sequence (Q7DAU8 319-573 S319C/K521C): T1 sequence (Q7DAU8 319-573) with S1C, K203C

- Kd [1]: 4.4 ± 0.1 µM
- Kd [2]: 4.3 ± 0.4 µM
SMILES: C[N+](C)(C)CC(=O)[O-] [glycine betaine]

Reference: article doi:10.1101/2023.09.01.555951v1 (biorxiv, 2023)
